According to publication PMC4403042, “Atrial-like cardiomyocytes from human pluripotent stem cells are a robust preclinical model for assessing atrial-selective pharmacology” (EMBO Molecular Medicine, 2015):

How the values were obtained:
Type in all cases: cell-based, human
COUP-TFII (NR2F2) = experiment: qPCR of COUP-TFII after RA treatment; conditions: day 31 GFP+ CMs, RA-treated vs control differentiation
Procedure: (§1) In order to determine the dynamics of COUP-TF expression following RA treatment, expression levels of both COUP-TFI and II were analyzed by qPCR at different time points and compared to control EBs. COUP-TFs were induced within 24 h of treatment with RA followed by dramatic increase in expression thereafter. […] The expression of COUP-TFs was maintained in differentiated CMs at day 31. COUP-TFI was expressed 20-fold higher, and COUP-TFII was enriched over 30-fold in hESC-atrial CMs compared to hESC-ventricular CMs (Fig4A and B). Antibodies selectively binding to COUP-TFI or COUP-TFII were used to verify the expression of these proteins. […]
(§2) atRA (Sigma) was diluted in DMSO to make a solution of 50 mmol/L which was further diluted in distilled water to have a stock solution of 0.0001 mol/L. atRA was used in a final concentration of 1 µmol/L in BPEL medium to direct atrial […]
(§3) Gene expression was determined on the HumanHT-12 v4 Expression BeadChip at ServiceXS, Leiden, The Netherlands. […]
(§4) For assessing gene expression by qPCR, cDNA was synthesized from approximately 1µ g of RNA obtained from three independent differentiations (iScript cDNA Synthesis Kit, BIO-RAD). Target identification was performed using SYBR Green (Applied Biosystems, Life technologies) and detected by CFX96 Real-Time PCR system (Bio-Rad). […]

COUP-TFI (NR2F1) = experiment: qPCR of COUP-TFI after RA treatment; conditions: day 31 GFP+ CMs, RA-treated vs control differentiation
Procedure: as §1, §2, §3, §4

differentiating hESCs = experiment: AP characterization of CMs generated from RA-treated differentiations (patch-clamp)
Source text: To study the electrical phenotype of CMs treated with RA during differentiation, we measured APs of dissociated single cells using the patch-clamp method (Fig3). Representative APs stimulated at 1 Hz are shown in Fig3B. The AP of a CM treated with RA during differentiation (RA) depicts an AP with a fast phase-1 repolarization and a plateau phase with a more negative potential compared to a control (CT) CM (Fig3B).
Spin EBs resulting from control and RA-treated differentiations were dissociated at day 17 to single cells using TrypLE™ Select (Life Technologies) and plated on gelatin-coated coverslips. Electrophysiological measurements were performed 10–14 days after dissociation from intrinsically quiescent single GFP^+ CMs that were able to contract upon field stimulation.
APs and membrane currents from hESC-CMs were recorded with the amphotericin-B-perforated patch-clamp technique at 36 ± 0.2°C using an Axopatch 200B amplifier (Molecular Devices, Sunnyvale, CA, USA). […] AP measurements were low-pass-filtered (cutoff frequency 10 kHz) and digitized at 40 kHz; membrane currents were measured at 1 and 4 kHz, respectively. Capacitance and series resistance were compensated by ≥ 80%, and APs were corrected for the calculated liquid junction potential (Barry & Lynch, [1991]). […]

For `CC1=C(/C=C/C(C)=C/C=C/C(C)=C/C(=O)O)C(C)(C)CCC1` [RA, all-trans retinoic acid], the “COUP-TFII mRNA, hESC-atrial vs hESC-ventricular CMs” value (COUP-TFII (NR2F2)) was “over 30 fold”, the “COUP-TFI mRNA, hESC-atrial vs hESC-ventricular CMs” value (COUP-TFI (NR2F1)) was 20 fold and the “APAplat of individual cells” value (differentiating hESCs; RA group, 1 Hz, CT group > 80 mV) was less than 80 mV. The “cells with atrial-like action potential properties” value (differentiating hESCs; RA treatment group, of 26 cells) was “about 85%”.
